# Laboratory results: patent US6506772B1, “Substituted [1,2,4]triazolo[1,5a]pyridine derivatives with activity as adenosine receptor ligands” (Hoffmann-La Roche Inc., priority 2000, dated 2003)
# Read-outs that look alike come from different tables or passages of the source.
# Legend:
# [1] = biological target: T1, human adenosine A2A receptor (Homo sapiens, UniProt P29274); assay: Human adenosine A2A receptor [3H]-SCH-58261 binding assay
# T1 construct: expressed in transfected cells; host or cells: CHO cells, Semliki Forest virus expression system; membrane preparation
# T1 sequence (P29274 whole entry): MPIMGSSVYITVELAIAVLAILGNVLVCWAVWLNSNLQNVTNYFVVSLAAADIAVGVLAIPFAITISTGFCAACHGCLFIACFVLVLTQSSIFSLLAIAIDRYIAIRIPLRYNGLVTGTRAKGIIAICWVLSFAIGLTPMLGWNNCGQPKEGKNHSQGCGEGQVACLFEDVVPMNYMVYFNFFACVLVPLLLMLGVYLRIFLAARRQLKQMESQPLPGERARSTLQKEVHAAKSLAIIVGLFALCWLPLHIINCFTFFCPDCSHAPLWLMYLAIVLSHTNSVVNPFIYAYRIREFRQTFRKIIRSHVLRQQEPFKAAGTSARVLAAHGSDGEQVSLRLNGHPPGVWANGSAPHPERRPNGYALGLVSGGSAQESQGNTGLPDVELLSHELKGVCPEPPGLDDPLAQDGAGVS
# HA1 adenosine receptor = biological target: T2, HA1 adenosine receptor (Homo sapiens, UniProt P30542); assay: Human adenosine A1 receptor affinity (Ki hA1); format: binding
# T2 sequence (P30542 1-326): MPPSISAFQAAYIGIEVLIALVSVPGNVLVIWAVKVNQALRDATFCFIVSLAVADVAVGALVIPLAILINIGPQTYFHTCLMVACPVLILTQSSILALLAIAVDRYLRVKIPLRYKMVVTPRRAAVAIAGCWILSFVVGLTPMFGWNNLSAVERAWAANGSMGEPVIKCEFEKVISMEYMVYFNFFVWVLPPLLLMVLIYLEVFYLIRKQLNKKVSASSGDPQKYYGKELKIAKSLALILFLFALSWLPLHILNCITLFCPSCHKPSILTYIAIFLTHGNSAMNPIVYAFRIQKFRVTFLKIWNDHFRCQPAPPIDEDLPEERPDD
# [2] = affinity to human adenosine A2A receptor, read-out: Ki HA2A
# [3] = calculated ratio of the affinity to the HA1 receptor to the HA2a receptor
# [4] = affinity to human adenosine A1 receptor
# [5] = recombinant human A2A in CHO cell membranes, [3H]-SCH-58261, Cheng-Prussoff, read-out: Ki hA2A
Structure (SMILES),"Ki [1, 2]","selectivity (A1/A2a) [1, 3]",Ki (HA1 adenosine receptor; [4]),selectivity (A1/A2a) ([1]; ratio KiHA1 divided by KiHA2A),"Ki [1, 5]",Ki (HA1 adenosine receptor)
"C[C@@H]1CC[C@@H](C)N1C(=O)c1cc(N)n2nc(-c3ccc(Br)o3)nc2c1 [Example 359, [5-Amino-2-(5-bromo-furan-2-yl)-[1,2,4]triazolo[1,5-a]pyridin-7-yl]-[(2R,5R)-trans-2,5-dimethyl-pyrrolidin-1-yl]-methanone]",7.3 nM,128.0,934 nM,,,
"C[C@@H]1CN(C(=O)c2cc(N)n3nc(-c4ccc(Br)o4)nc3c2)C[C@H](C)O1 [Example 360, [5-Amino-2-(5-bromo-furan-2-yl)-[1,2,4]triazolo[1,5-a]pyridin-7-yl]-(cis-2,6-dimethyl-morpholin-4-yl)-methanone]",7.7 nM,54.9,422 nM,,,
"Nc1cc(C(=O)N2CCCC3CCCCC32)cc2nc(-c3nccs3)nn12 (stereo not drawn) [Example 379, (5-Amino-2-thiazol-2-yl-[1,2,4]triazolo[1,5-a]pyridin-7-yl)-(octahydro-quinolin-1-yl)-methanone]",,,,17.2,33.5 nM,577 nM
"Nc1cc(C(=O)N2CCC3CCCCC3C2)cc2nc(-c3nccs3)nn12 (stereo not drawn) [Example 380, (5-Amino-2-thiazol-2-yl-[1,2,4]triazolo[1,5-a]pyridin-7-yl)-(octahydro-isoquinolin-2-yl)-methanone]",,,,24.8,76.9 nM,1910 nM
"CCN(CC)C(=O)C1CCCN(C(=O)c2cc(N)n3nc(-c4nccs4)nc3c2)C1 (stereo not drawn) [Example 381, 1-(5-Amino-2-thiazol-2-yl-[1,2,4]triazolo[1,5-a]pyridine-7-carbonyl)-piperidine-3-carboxylic acid diethylamide]",,,,11.4,180 nM,2050 nM
"C=CCN(C(=O)c1cc(N)n2nc(-c3nccs3)nc2c1)C1CCCC1 [Example 382, 5-Amino-2-thiazol-2-yl-[1,2,4]triazolo[1,5-a]pyridine-7-carboxylic acid allyl-cyclopentyl-amide]",,,,13.4,54.6 nM,729 nM
"CCN(C(=O)c1cc(N)n2nc(-c3nccs3)nc2c1)C1CCCCC1 [Example 383, 5-Amino-2-thiazol-2-yl-[1,2,4]triazolo[1,5-a]pyridine-7-carboxylic acid cyclohexyl-ethyl-amide]",,,,13.9,81.2 nM,1130 nM
"COC[C@@H]1CC[C@@H](COC)N1C(=O)c1cc(N)n2nc(-c3ccc(Br)o3)nc2c1 [Example 387, [5 -Amino-2-(5-bromo-furan-2-yl)-[1,2,4]triazolo[1,5-a]pyridin-7-yl]-(S,S-2,5-bis-methoxymethyl-pyrrolidin-1-yl)-methanone]",,,,21.5,118 nM,2540 nM
"NC(=O)[C@@H]1CCCN1C(=O)c1cc(N)n2nc(-c3ccc(Br)o3)nc2c1 [Example 388, 1-[5-Amino-2-(5-bromo-furan-2-yl)-[1,2,4]triazolo[1,5-a]pyridine-7-carbonyl]-L-pyrrolidine-2-carboxylic acid amide]",,,,12.4,26.7 nM,330 nM
"NC(=O)[C@@H]1CCCN1C(=O)c1cc(N)n2nc(-c3ccc(Br)o3)nc2c1 [Example 389, 1-[5-Amino-2-(5-bromo-furan-2-yl)-[1,2,4]triazolo[1,5-a]pyridine-7-carbonyl]-D-pyrrolidine-2-carboxylic acid amide]",,,,39.1,9.8 nM,383 nM
"CN(C)C(=O)C1CCCN1C(=O)c1cc(N)n2nc(-c3ccc(Br)o3)nc2c1 (stereo not drawn) [Example 390, 1-[5-Amino-2-(5-bromo-furan-2-yl)-[1,2,4]triazolo[1,5-a]pyridine-7-carbonyl]-pyrrolidine-2-carboxylic acid dimethylamide]",,,,98,8.3 nM,813 nM
"CC(=O)NC1CCN(C(=O)c2cc(N)n3nc(-c4ccc(Br)o4)nc3c2)C1 (stereo not drawn) [Example 391, N-{1-[5-Amino-2-(5-bromo-furan-2-yl)-[1,2,4]triazolo[1,5-a]pyridine-7-carbonyl]-pyrrolidin-3-yl}-acetamide]",,,,27.6,53 nM,1460 nM
"CC(=O)N(C)C1CCN(C(=O)c2cc(N)n3nc(-c4ccc(Br)o4)nc3c2)C1 (stereo not drawn) [Example 392, N-{1-[5-Amino-2-(5-bromo-furan-2-yl)-[1,2,4]triazolo[1,5-a]pyridine-7-carbonyl]-pyrrolidin-3-yl}-N-methyl-acetamide]",,,,51.2,34.7 nM,1780 nM

# Second part, the molecule after the results:
"Ki [1, 2]","selectivity (A1/A2a) [1, 3]",Ki (HA1 adenosine receptor; [4]),selectivity (A1/A2a) ([1]; ratio KiHA1 divided by KiHA2A),"Ki [1, 5]",Ki (HA1 adenosine receptor),Structure (SMILES)
,,,32.9,2.9 nM,95.3 nM,"CCC1CCC(C)N(C(=O)c2cc(N)n3nc(-c4ccc(Br)o4)nc3c2)C1 (stereo not drawn) [Example 393, [5-Amino-2-(5-bromo-furan-2-yl)-[1,2,4]triazolo[1,5-a]pyridin-7-yl]-(5-ethyl-2-methyl-piperidin-1-yl)-methanone]"
,,,37.9,11 nM,417 nM,"NC(=O)C1CCCN(C(=O)c2cc(N)n3nc(-c4ccc(Br)o4)nc3c2)C1 (stereo not drawn) [Example 394, 1-[5-Amino-2-(5-bromo-furan-2-yl)-[1,2,4]triazolo[1,5-a]pyridine-7-carbonyl]-piperidine-3-carboxylic acid amide]"
,,,44,6.7 nM,295 nM,"COCCN(C)C(=O)c1cc(N)n2nc(-c3ccc(Br)o3)nc2c1 [Example 395, 5-Amino-2-(5-bromo-furan-2-yl)-[1,2,4]triazolo[1,5-a]pyridine-7-carboxylic acid (2-methoxy-ethyl)-methyl-amide]"
,,,48.7,3.5 nM,170 nM,"CCN(CCOC)C(=O)c1cc(N)n2nc(-c3ccc(Br)o3)nc2c1 [Example 396, 5-Amino-2-(5-bromo-furan-2-yl)-[1,2,4]triazolo[1,5-a]pyridine-7-carboxylic acid ethyl-(2-methoxy-ethyl)-amide]"
,,,18.4,298 nM,5490 nM,"COCCN(C)C(=O)c1cc(N)n2nc(-c3nccs3)nc2c1 [Example 397, 5-Amino-2-thiazol-2-yl-[1,2,4]triazolo[1,5-a]pyridine-7-carboxylic acid (2-methoxy-ethyl)-methyl-amide]"
,,,53.3,83.7 nM,4460 nM,"COC[C@@H]1CCCN1C(=O)c1cc(N)n2nc(-c3nccs3)nc2c1 [Example 400, (5-Amino-2-thiazol-2-yl-[1,2,4]triazolo[1,5-a]pyridin-7-yl)-(S-2-methoxymethyl-pyrrolidin-1-yl)-methanone]"
,,,66.4,51.9 nM,3440 nM,"COC[C@H]1CCCN1C(=O)c1cc(N)n2nc(-c3nccs3)nc2c1 [Example 401, (5-Amino-2-thiazol-2-yl-[1,2,4]triazolo[1,5-a]pyridin-7-yl)-(R-2-methoxymethyl-pyrrolidin-1-yl)-methanone]"
,,,13.3,94.3 nM,1250 nM,"CCC1CCC(C)N(C(=O)c2cc(N)n3nc(-c4nccs4)nc3c2)C1 (stereo not drawn) [Example 404, (5-Amino-2-thiazol-2-yl-[1,2,4]triazolo[1,5-a]pyridin-7-yl)-(5-ethyl-2-methyl-piperidin-1-yl)-methanone]"
